Results as given in the supplement of paper PMC10307832.

Key:
Test in all cases: relative viability (nuclei count vs DMSO), 5 days (fraction); higher = more cells survive
[1] = compound: Cc1ccc(C(=O)N(CCCN)[C@@H](c2nc3cc(Cl)ccc3c(=O)n2Cc2ccccc2)C(C)C)cc1 [Ispinesib] + CC(=O)Nc1cccc(-n2c(=O)n(C3CC3)c(=O)c3c(Nc4ccc(I)cc4F)n(C)c(=O)c(C)c32)c1 [Trametinib] (partner 0.02 µM)
In short: (§1)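 Lung cancer cell lines were pin-tool dosed in 1536-well plates on the day after seeding, with either a lone drug or a fixed anchor-drug dose plus five library-drug doses (not always all listed) in √10 steps. Nuclei were counted on 4× images after 5 days. Relative viability is the ratio of treated-well to vehicle-well nuclei counts, with each value a median of duplicate plates.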

[2] = compound: Cc1ccc(C(=O)N(CCCN)[C@@H](c2nc3cc(Cl)ccc3c(=O)n2Cc2ccccc2)C(C)C)cc1 [Ispinesib] + Cc1nc(NC(=O)N2CCC[C@H]2C(N)=O)sc1-c1ccnc(C(C)(C)C(F)(F)F)c1 [Alpelisib] (partner 2 µM)
In short: as §1

[3] = compound: Cc1ccc(C(=O)N(CCCN)[C@@H](c2nc3cc(Cl)ccc3c(=O)n2Cc2ccccc2)C(C)C)cc1 [Ispinesib] + COc1cccc2cc(-c3nc([C@H]4CC[C@H](C(=O)O)CC4)n4ncnc(N)c34)[nH]c12 [OSI-027] (partner 0.5 µM)
In short: as §1

[4] = compound: Cc1ccc(C(=O)N(CCCN)[C@@H](c2nc3cc(Cl)ccc3c(=O)n2Cc2ccccc2)C(C)C)cc1 [Ispinesib] + CS(=O)(=O)N1CCN(Cc2cc3nc(-c4cccc5[nH]ncc45)nc(N4CCOCC4)c3s2)CC1 [Pictilisib] (partner 1 µM)
In short: as §1

Cell Line | relative viability ([1]; first compound 0.001 µM) | relative viability ([1]; first compound 0.003162 µM) | relative viability ([1]; first compound 0.01 µM) | relative viability ([1]; first compound 0.03162 µM) | relative viability ([1]; first compound 0.1 µM) | relative viability ([2]; first compound 0.001 µM) | relative viability ([2]; first compound 0.003162 µM) | relative viability ([2]; first compound 0.01 µM) | relative viability ([2]; first compound 0.03162 µM) | relative viability ([2]; first compound 0.1 µM) | relative viability ([3]; first compound 0.001 µM) | relative viability ([3]; first compound 0.003162 µM) | relative viability ([3]; first compound 0.01 µM) | relative viability ([3]; first compound 0.03162 µM) | relative viability ([3]; first compound 0.1 µM) | relative viability ([4]; first compound 0.001 µM) | relative viability ([4]; first compound 0.003162 µM) | relative viability ([4]; first compound 0.01 µM) | relative viability ([4]; first compound 0.03162 µM) | relative viability ([4]; first compound 0.1 µM)
HARA | 0.727 | 0.634 | 0.816 | 1.14 | 0.234 | 0.865 | 0.806 | 0.914 | 0.674 | 0.371 | 0.641 | 0.553 | 0.535 | 0.0672 | 0.0972 | 0.445 | 0.43 | 0.392 | 0.467 | 0.179
HCC-15 | 0.262 | 0.42 | 0.422 | 0.381 | 0.296 | 0.92 | 0.955 | 1.06 | 0.83 | 0.358 | 0.773 | 0.715 | 0.771 | 0.203 | 0.178 | 0.878 | 0.864 | 0.812 | 0.459 | 0.139
HCC-44 | 1.06 | 1.05 | 1.09 | 1.07 | 1.11 | 0.805 | 0.878 | 1.11 | 0.822 | 0.234 | 0.458 | 0.812 | 0.505 | 0.484 | 0.151 | 0.768 | 0.858 | 0.68 | 0.646 | 0.106
HCC-78 | 1.04 | 0.869 | 1.2 | 0.493 | 0.513 | 0.358 | 0.393 | 0.38 |  | 0.268 | 0.439 | 0.448 | 0.368 | 0.345 | 0.318 | 0.223 | 0.198 | 0.235 |  | 0.247
HCC-366 | 0.386 | 0.428 | 0.403 | 0.411 | 0.0793 | 0.733 | 0.393 | 0.535 | 0.47 | 0.135 | 0.944 | 1.01 | 1.33 | 0.204 | 0.0402 | 0.082 | 0.161 | 0.143 | 0.0978 | 0.0851
HCC-827 | 0.595 | 0.516 | 0.542 | 0.57 | 0.59 | 0.91 | 1 | 0.981 | 0.922 | 0.814 | 0.653 | 0.801 | 0.887 | 0.664 | 0.437 | 0.979 | 0.964 | 1.05 | 0.8 | 0.734
HOP-62 | 0.349 | 0.373 | 0.406 | 0.441 | 0.42 | 0.656 | 0.957 | 0.908 | 1.17 | 0.981 | 0.756 | 1.07 | 1.05 | 0.76 | 0.444 | 0.568 | 0.784 | 0.785 | 0.306 | 0.148
IA-LM |  |  |  |  |  | 0.742 | 0.904 | 1.09 | 0.11 | 0.158 |  |  |  |  |  | 0.484 | 0.352 | 0.278 | 0.173 | 0.121
LC-2-ad | 0.934 | 0.944 | 0.92 | 0.9 | 0.474 | 0.932 | 0.94 | 1.06 | 0.697 | 0.268 | 0.808 | 0.855 | 0.973 | 0.352 | 0.264 | 0.507 | 0.509 | 0.438 | 0.0946 | 0.133
NCI-H522 | 0.814 | 0.879 | 0.913 | 0.788 | 0.646 |  |  |  |  |  | 0.746 | 0.759 | 0.715 | 0.555 | 0.414 |  |  |  |  | 
NCI-H1299 |  |  |  |  |  | 1.11 | 1.09 | 1.15 | 1.17 | 0.449 |  |  |  |  |  | 0.951 | 0.727 | 0.789 | 0.37 | 0.152
NCI-H1563 |  |  |  |  |  | 0.972 | 0.949 | 0.944 | 0.838 | 0.705 | 0.841 | 0.768 | 0.834 | 0.843 | 0.536 | 0.68 | 0.723 | 0.533 | 0.54 | 0.528
NCI-H1623 |  |  |  |  |  |  |  |  |  |  | 0.433 | 0.439 | 0.451 | 0.406 | 0.4 |  |  |  |  | 
NCI-H1648 | 0.47 | 0.559 | 0.479 | 0.583 | 0.496 |  |  |  |  |  | 0.274 | 0.312 | 0.212 | 0.226 | 0.238 |  |  |  |  | 
NCI-H1650 | 0.726 | 0.581 | 0.556 | 0.417 | 0.315 |  |  |  |  |  | 0.573 | 0.718 | 0.623 | 0.174 | 0.271 | 0.586 | 0.576 | 0.338 | 0.164 | 0.266
NCI-H1703 |  |  |  |  |  | 0.352 | 0.322 | 0.224 | 0.0938 | 0.135 |  |  |  |  |  | 0.248 | 0.218 | 0.181 | 0.123 | 0.136
NCI-H2342 | 0.892 | 0.819 | 0.896 | 0.797 | 0.722 |  |  |  |  |  | 0.631 | 0.741 | 0.593 | 0.48 | 0.456 |  |  |  |  | 
SW 900 | 0.914 | 0.947 | 1.02 | 0.924 | 0.326 |  |  |  |  |  | 0.751 | 0.617 | 0.553 | 0.345 | 0.225 |  |  |  |  | 
